Results: the NIST ThermoML archive (doi:10.1021/je5007407)
Values joined by “and” are separate entries in the source; they are usually repeats but may differ in a detail not shown here. Identical values can stand only once.

Test: xn = mol fraction of the nth substance listed
Settings: Gas, Frequency=2 MHz, Pulse-echo method

CCC [propane] + O=C=O
Settings | speed of sound
248.59 K, 8020 kPa, x2 = 0.9981 | 802.3 m/s
248.59 K, 8030 kPa, x2 = 0.9981 | 802.3 m/s
248.59 K, 14980 kPa, x2 = 0.9981 | 856.8 m/s
248.59 K, 24990 kPa, x2 = 0.9981 | 923 m/s
248.59 K, 50040 kPa, x2 = 0.9981 | 1051.1 m/s
248.59 K, 74970 kPa, x2 = 0.9981 | 1149.9 m/s
248.59 K, 100010 kPa, x2 = 0.9981 | 1233.1 m/s
248.59 K, 124970 kPa, x2 = 0.9981 | 1303.8 m/s
248.59 K, 150040 kPa, x2 = 0.9981 | 1367.4 m/s
248.88 K, 8270 kPa, x2 = 0.9376 | 799.4 m/s
248.88 K, 15030 kPa, x2 = 0.9376 | 855.4 m/s
248.88 K, 25030 kPa, x2 = 0.9376 | 924.8 m/s
248.88 K, 49910 kPa, x2 = 0.9376 | 1056.8 m/s
248.88 K, 75000 kPa, x2 = 0.9376 | 1159.3 m/s
248.88 K, 100010 kPa, x2 = 0.9376 | 1246.2 m/s
248.88 K, 125000 kPa, x2 = 0.9376 | 1320.1 m/s
248.88 K, 149990 kPa, x2 = 0.9376 | 1385.8 m/s
248.88 K, 174980 kPa, x2 = 0.9376 | 1447.1 m/s
249.03 K, 7920 kPa, x2 = 0.9683 | 797.2 m/s and 796.4 m/s
249.03 K, 14790 kPa, x2 = 0.9683 | 852.8 m/s
249.03 K, 25010 kPa, x2 = 0.9683 | 922.3 m/s
249.03 K, 49980 kPa, x2 = 0.9683 | 1052.6 m/s
249.03 K, 75760 kPa, x2 = 0.9683 | 1155.3 m/s
249.03 K, 100410 kPa, x2 = 0.9683 | 1239.6 m/s
249.03 K, 125280 kPa, x2 = 0.9683 | 1312.1 m/s
249.03 K, 150010 kPa, x2 = 0.9683 | 1377.4 m/s
251.21 K, 8050 kPa, x2 = 0.9907 | 786.8 m/s
251.21 K, 8120 kPa, x2 = 0.9907 | 787.6 m/s
251.21 K, 15010 kPa, x2 = 0.9907 | 844.2 m/s
251.21 K, 25270 kPa, x2 = 0.9907 | 913.8 m/s
251.21 K, 50770 kPa, x2 = 0.9907 | 1045.7 m/s
251.21 K, 75170 kPa, x2 = 0.9907 | 1143.2 m/s
251.21 K, 101430 kPa, x2 = 0.9907 | 1230.8 m/s
251.21 K, 124940 kPa, x2 = 0.9907 | 1299.1 m/s
251.21 K, 150910 kPa, x2 = 0.9907 | 1366.3 m/s
273.25 K, 8170 kPa, x2 = 0.9376 | 614.5 m/s
273.25 K, 8180 kPa, x2 = 0.9376 | 614.8 m/s
273.25 K, 15190 kPa, x2 = 0.9376 | 699.7 m/s
273.25 K, 24920 kPa, x2 = 0.9376 | 787.4 m/s
273.25 K, 50000 kPa, x2 = 0.9376 | 946.5 m/s
273.25 K, 75020 kPa, x2 = 0.9376 | 1062.2 m/s
273.25 K, 100040 kPa, x2 = 0.9376 | 1155.2 m/s
273.25 K, 125010 kPa, x2 = 0.9376 | 1236.3 m/s
273.25 K, 150000 kPa, x2 = 0.9376 | 1305.4 m/s
273.25 K, 175050 kPa, x2 = 0.9376 | 1369.6 m/s
273.25 K, 200000 kPa, x2 = 0.9376 | 1428.5 m/s
273.34 K, 8010 kPa, x2 = 0.9683 | 610.5 m/s and 610.9 m/s
273.34 K, 14920 kPa, x2 = 0.9683 | 694.4 m/s
273.34 K, 25000 kPa, x2 = 0.9683 | 785 m/s
273.34 K, 50050 kPa, x2 = 0.9683 | 942.8 m/s
273.34 K, 75530 kPa, x2 = 0.9683 | 1058.9 m/s
273.34 K, 100060 kPa, x2 = 0.9683 | 1149.4 m/s
273.34 K, 125060 kPa, x2 = 0.9683 | 1229.3 m/s
273.34 K, 148510 kPa, x2 = 0.9683 | 1293.7 m/s
273.34 K, 175030 kPa, x2 = 0.9683 | 1360.3 m/s
273.34 K, 200040 kPa, x2 = 0.9683 | 1417.3 m/s
273.39 K, 8050 kPa, x2 = 0.9907 | 613.9 m/s
273.39 K, 8070 kPa, x2 = 0.9907 | 614 m/s
273.39 K, 15140 kPa, x2 = 0.9907 | 698.1 m/s
273.39 K, 25280 kPa, x2 = 0.9907 | 787.2 m/s
273.39 K, 50080 kPa, x2 = 0.9907 | 941.2 m/s
273.39 K, 75540 kPa, x2 = 0.9907 | 1055.9 m/s
273.39 K, 100080 kPa, x2 = 0.9907 | 1145.5 m/s
273.39 K, 125360 kPa, x2 = 0.9907 | 1225.5 m/s
273.39 K, 150170 kPa, x2 = 0.9907 | 1292.3 m/s
273.39 K, 174970 kPa, x2 = 0.9907 | 1354.8 m/s
273.39 K, 199910 kPa, x2 = 0.9907 | 1410.8 m/s
273.41 K, 15200 kPa, x2 = 0.9981 | 699 m/s
273.41 K, 15230 kPa, x2 = 0.9981 | 699 m/s
273.41 K, 25030 kPa, x2 = 0.9981 | 785.6 m/s
273.41 K, 50020 kPa, x2 = 0.9981 | 939.4 m/s
273.41 K, 75010 kPa, x2 = 0.9981 | 1052.3 m/s
273.41 K, 100020 kPa, x2 = 0.9981 | 1143.6 m/s
273.41 K, 124950 kPa, x2 = 0.9981 | 1220.2 m/s
273.41 K, 150010 kPa, x2 = 0.9981 | 1288.3 m/s
273.41 K, 174990 kPa, x2 = 0.9981 | 1349.1 m/s
273.41 K, 200000 kPa, x2 = 0.9981 | 1404.5 m/s
298.13 K, 25110 kPa, x2 = 0.9907 | 654.1 m/s
298.13 K, 25180 kPa, x2 = 0.9907 | 653.9 m/s
298.13 K, 50020 kPa, x2 = 0.9907 | 837.8 m/s
298.13 K, 50040 kPa, x2 = 0.9981 | 837.4 m/s and 837.3 m/s
298.13 K, 74940 kPa, x2 = 0.9981 | 962.5 m/s
298.13 K, 75230 kPa, x2 = 0.9907 | 965 m/s
298.13 K, 100020 kPa, x2 = 0.9981 | 1061.9 m/s
298.13 K, 100100 kPa, x2 = 0.9907 | 1064 m/s
298.13 K, 124970 kPa, x2 = 0.9907 | 1147.9 m/s
298.13 K, 125020 kPa, x2 = 0.9981 | 1145.5 m/s
298.13 K, 149790 kPa, x2 = 0.9907 | 1220.2 m/s
298.13 K, 150010 kPa, x2 = 0.9981 | 1219.2 m/s
298.13 K, 174530 kPa, x2 = 0.9907 | 1285.6 m/s
298.13 K, 174980 kPa, x2 = 0.9981 | 1285.5 m/s
298.13 K, 200010 kPa, x2 = 0.9981 | 1346.1 m/s
298.13 K, 200530 kPa, x2 = 0.9907 | 1346.2 m/s
298.14 K, 14950 kPa, x2 = 0.9683 | 531.8 m/s
298.14 K, 14960 kPa, x2 = 0.9683 | 532.2 m/s
298.14 K, 24980 kPa, x2 = 0.9683 | 654.5 m/s
298.14 K, 50050 kPa, x2 = 0.9683 | 841.6 m/s
298.14 K, 74950 kPa, x2 = 0.9683 | 969 m/s
298.14 K, 100060 kPa, x2 = 0.9683 | 1070 m/s
298.14 K, 125000 kPa, x2 = 0.9683 | 1154.1 m/s
298.14 K, 150290 kPa, x2 = 0.9683 | 1228.9 m/s
298.14 K, 175030 kPa, x2 = 0.9683 | 1294.1 m/s
298.14 K, 200020 kPa, x2 = 0.9683 | 1354.1 m/s
298.18 K, 8210 kPa, x2 = 0.9376 | 388.5 m/s
298.18 K, 15120 kPa, x2 = 0.9376 | 538.7 m/s and 538.6 m/s
298.18 K, 24990 kPa, x2 = 0.9376 | 659 m/s
298.18 K, 49980 kPa, x2 = 0.9376 | 846.6 m/s
298.18 K, 75090 kPa, x2 = 0.9376 | 975.1 m/s
